From ChEMBL document CHEMBL1144544, “Solid-phase synthesis of a combinatorial library of dihydroceramide analogues and its activity in human alveolar epithelial cells” (Bioorg Med Chem, 2007)
The source made the active and inactive calls. No cut-off for these calls is given here.

How the values were obtained:
[1] = tested on: A549; test: Cytotoxicity against human A549 cells after 72 hrs by MTT test; format: cell-based; conditions: A549, 72 h
[2] = tested on: A549; test: Cell cycle arrest in human A549 cells by accumulation at S phase after 72 hrs relative to control by flow cytometry; format: functional; design: concentration or dose not given beside the values
[3] = tested on: A549; test: Cell cycle arrest in human A549 cells by accumulation at G0/G1 phase after 72 hrs relative to control by flow cytometry; format: functional; design: concentration or dose not given beside the values
[4] = tested on: A549; test: Cell cycle arrest in human A549 cells by accumulation at G2 phase after 72 hrs relative to control by flow cytometry; format: functional; design: concentration or dose not given beside the values
[5] = tested on: A549; test: Cell death of human A549 cells assessed as increase in number of apoptotic cells by annexin V and propidium iodide staining by flow cytometry; format: functional, cell-based
[6] = tested on: A549; test: Cytotoxicity against human A549 cells at 1 mM after 72 hrs by MTT test; format: cell-based; conditions: a549, 72 h, 1000 µM
[7] = tested on: A549; test: Cytotoxicity against human A549 cells upto 1 mM in presence of 10% FBS after 72 hrs by MTT test; format: cell-based; conditions: a549, 72 h
[8] = tested on: A549; test: Cytotoxicity against human A549 cells upto 1 mM in presence of <=5% FBS after 72 hrs by MTT test; format: cell-based; conditions: a549, 72 h
[9] = tested on: A549; test: Cytotoxicity against human A549 cells in presence of 10% FBS after 72 hrs by MTT test; format: cell-based; conditions: a549, 72 h

Row | SMILES | IC50 [1] [µM] | Activity [2] [%] | Activity [3] [%] | Activity [4] [%] | further results
1 | CCCCCCCCC(O)[C@H](CO)NC(=O)c1ccc(CCCCCCC)cc1 (some centres not stated) | 20 | 3.4 | 92.6 | 4 | Activity [5]: Active
2 | COc1ccc(CC(=O)N[C@@H](CO)C(C)O)cc1OC (some centres not stated) | 410 |  |  |  | 
3 | CCCCCCCCC(O)[C@H](CO)NC(=O)c1ccc2ccccc2c1 (some centres not stated) |  | 5.4 | 91.2 | 3.4 | 
4 | CCCCCCC(O)[C@H](CO)NC(=O)c1ccccc1 (some centres not stated) | 290 |  |  |  | 
5 | CCCCCCCCC(O)[C@H](CO)NC(=O)CCC1CCCC1 (some centres not stated) |  | 3.4 | 94.4 | 2.2 | 
6 | CCCCCCCCCCCCC(O)[C@H](CO)NC(=O)c1ccc2ccccc2c1 (some centres not stated) |  | 7.4 | 90.4 | 2.2 | 
7 | CCCCCCCCCCCCC(O)[C@H](CO)NC(=O)c1ccccc1 (some centres not stated) |  | 12.8 | 83 | 4.2 | 
8 | CC(O)[C@H](CO)NC(=O)CCC1CCCC1 (some centres not stated) |  |  |  |  | Activity [6]: Non-toxic
9 | CCCCCCCCCCCCC(O)[C@H](CO)NC(=O)c1ccc(CCCCCCC)cc1 (some centres not stated) |  | 7.4 | 88.2 | 4.4 | 
10 | CCCCCCCc1ccc(C(=O)N[C@@H](CO)C(O)c2ccccc2)cc1 (some centres not stated) | 20 |  |  |  | 
11 | CC(C)CC(=O)N[C@@H](CO)C(O)c1ccccc1 (some centres not stated) |  |  |  |  | Activity [6]: Non-toxic
12 | CCCCCCCCCCCCCCC[C@@H](O)[C@H](CO)NC(=O)c1ccc(CCCCCCC)cc1 |  |  |  |  | Activity [5]: inactive
13 | CC(O)[C@H](CO)NC(=O)c1ccc2ccccc2c1 (some centres not stated) |  |  |  |  | Activity [6]: Non-toxic
14 | CCCCCCCc1ccc(C(=O)N[C@@H](CO)C(O)CCCCCC)cc1 (some centres not stated) | 20 | 8.1 | 86.5 | 5.4 | 
15 | CCCCCCC(O)[C@H](CO)NC(=O)CC(C)C (some centres not stated) | 302 |  |  |  | 
16 | CCCCCCCCCCCCCCC[C@H](O)[C@H](CO)NC(=O)c1ccc(CCCCCCC)cc1 | 108 | 11.5 | 83.1 | 5.4 | Activity [5]: Active
17 | CCCCCCCCC(O)[C@H](CO)NC(=O)CC(C)C (some centres not stated) |  | 10.5 | 84.5 | 5 | 
18 | CCCCCCCCC(O)[C@H](CO)NC(=O)Cc1ccc(OC)c(OC)c1 (some centres not stated) |  | 10.5 | 84 | 5.5 | 
19 | O=C(CCC1CCCC1)N[C@@H](CO)C(O)c1ccccc1 (some centres not stated) | 597 |  |  |  | 
20 | CC(O)[C@H](CO)NC(=O)c1ccccc1 (some centres not stated) |  |  |  |  | Activity [6]: Non-toxic
21 | CCCCCCCCCCCCC(O)[C@H](CO)NC(=O)Cc1ccc(OC)c(OC)c1 (some centres not stated) | 20 | 5.4 | 86.5 | 7 | 
22 | CCCCCCCCC(O)[C@H](CO)NC(=O)c1ccccc1 (some centres not stated) |  | 8.4 | 89.6 | 2 | 
23 | O=C(N[C@@H](CO)C(O)c1ccccc1)c1ccc2ccccc2c1 (some centres not stated) | 580 |  |  |  | 
24 | CCCCCCCCCCCCCCC[C@@H](O)[C@H](CO)NC(=O)CCCCC |  |  |  |  | Activity [7]: Not Active
25 | CC(C)CC(=O)N[C@@H](CO)C(C)O (some centres not stated) |  |  |  |  | Activity [6]: Non-toxic
26 | CCCCCCCCCCCCC/C=C/[C@@H](O)[C@H](CO)NC(=O)CCCCC | 35 |  |  |  | Activity [8]: Non-toxic; Activity [9]: Dose-dependent effect
27 | CCCCCCCCCCCCC(O)[C@H](CO)NC(=O)CC(C)C (some centres not stated) |  | 5.2 | 89.8 | 4.4 | 
28 | O=C(N[C@@H](CO)C(O)c1ccccc1)c1ccccc1 (some centres not stated) | 689 |  |  |  | 
